This note sets out measurements from ChEMBL document CHEMBL5291721, “A preclinical secondary pharmacology resource illuminates target-adverse drug reaction associations of marketed drugs” (Nat Commun, 2023).

Experiment [1] concerns the target T1, Alpha-1A adrenergic receptor (Homo sapiens, UniProt P35348).
T1 sequence (P35348 whole entry): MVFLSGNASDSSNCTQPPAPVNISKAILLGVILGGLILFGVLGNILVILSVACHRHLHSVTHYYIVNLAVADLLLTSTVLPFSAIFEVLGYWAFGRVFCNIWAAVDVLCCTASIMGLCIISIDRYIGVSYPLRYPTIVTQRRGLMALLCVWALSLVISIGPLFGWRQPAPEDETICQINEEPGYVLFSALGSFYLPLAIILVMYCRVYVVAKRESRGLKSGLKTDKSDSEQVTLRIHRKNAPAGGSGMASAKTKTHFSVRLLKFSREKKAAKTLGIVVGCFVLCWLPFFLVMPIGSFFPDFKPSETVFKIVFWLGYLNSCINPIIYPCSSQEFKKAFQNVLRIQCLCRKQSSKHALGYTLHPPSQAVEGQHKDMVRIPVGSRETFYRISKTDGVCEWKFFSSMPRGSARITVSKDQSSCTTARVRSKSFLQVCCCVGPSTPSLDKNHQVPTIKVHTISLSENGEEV
The experiment is classed as functional, cell-based.

In experiment [2] the target is T2, Alpha-2A adrenergic receptor (Homo sapiens, UniProt P08913).
T2 sequence (P08913 whole entry): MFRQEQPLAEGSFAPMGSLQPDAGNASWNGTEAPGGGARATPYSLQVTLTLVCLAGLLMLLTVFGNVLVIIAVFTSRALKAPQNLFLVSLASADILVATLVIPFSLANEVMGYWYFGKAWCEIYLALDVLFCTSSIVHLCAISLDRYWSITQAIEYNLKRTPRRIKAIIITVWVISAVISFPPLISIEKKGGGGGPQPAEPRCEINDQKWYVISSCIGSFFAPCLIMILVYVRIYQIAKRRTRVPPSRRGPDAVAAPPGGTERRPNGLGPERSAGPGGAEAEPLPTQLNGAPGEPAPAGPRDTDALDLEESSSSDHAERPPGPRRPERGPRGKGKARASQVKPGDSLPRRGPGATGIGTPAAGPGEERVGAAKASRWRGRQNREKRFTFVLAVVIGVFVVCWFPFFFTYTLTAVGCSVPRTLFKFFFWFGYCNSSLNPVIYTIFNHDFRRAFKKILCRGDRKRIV
Format: functional, cell-based.

Experiment [3] addresses T3, Alpha-2C adrenergic receptor (Homo sapiens, UniProt P18825).
T3 sequence (P18825 whole entry): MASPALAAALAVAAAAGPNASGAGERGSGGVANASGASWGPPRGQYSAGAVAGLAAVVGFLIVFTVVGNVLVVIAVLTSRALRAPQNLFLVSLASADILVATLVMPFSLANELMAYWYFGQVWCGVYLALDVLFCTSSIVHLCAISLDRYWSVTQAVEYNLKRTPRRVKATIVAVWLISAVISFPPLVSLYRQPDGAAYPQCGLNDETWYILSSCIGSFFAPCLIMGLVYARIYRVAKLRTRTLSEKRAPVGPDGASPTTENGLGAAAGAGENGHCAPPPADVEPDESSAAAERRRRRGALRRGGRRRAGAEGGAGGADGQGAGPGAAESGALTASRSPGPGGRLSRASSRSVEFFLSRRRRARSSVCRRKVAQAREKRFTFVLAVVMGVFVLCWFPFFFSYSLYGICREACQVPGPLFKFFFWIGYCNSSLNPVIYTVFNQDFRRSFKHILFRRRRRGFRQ
The experiment is classed as functional.

Experiment [4] deals with Beta-1 adrenergic receptor (Homo sapiens, UniProt P08588). Format: functional.
Experiment [5] addresses Beta-2 adrenergic receptor (Homo sapiens, UniProt P07550).
Experiment [6] deals with T4, Androgen receptor (Rattus norvegicus, UniProt P15207).
T4 sequence (P15207 whole entry): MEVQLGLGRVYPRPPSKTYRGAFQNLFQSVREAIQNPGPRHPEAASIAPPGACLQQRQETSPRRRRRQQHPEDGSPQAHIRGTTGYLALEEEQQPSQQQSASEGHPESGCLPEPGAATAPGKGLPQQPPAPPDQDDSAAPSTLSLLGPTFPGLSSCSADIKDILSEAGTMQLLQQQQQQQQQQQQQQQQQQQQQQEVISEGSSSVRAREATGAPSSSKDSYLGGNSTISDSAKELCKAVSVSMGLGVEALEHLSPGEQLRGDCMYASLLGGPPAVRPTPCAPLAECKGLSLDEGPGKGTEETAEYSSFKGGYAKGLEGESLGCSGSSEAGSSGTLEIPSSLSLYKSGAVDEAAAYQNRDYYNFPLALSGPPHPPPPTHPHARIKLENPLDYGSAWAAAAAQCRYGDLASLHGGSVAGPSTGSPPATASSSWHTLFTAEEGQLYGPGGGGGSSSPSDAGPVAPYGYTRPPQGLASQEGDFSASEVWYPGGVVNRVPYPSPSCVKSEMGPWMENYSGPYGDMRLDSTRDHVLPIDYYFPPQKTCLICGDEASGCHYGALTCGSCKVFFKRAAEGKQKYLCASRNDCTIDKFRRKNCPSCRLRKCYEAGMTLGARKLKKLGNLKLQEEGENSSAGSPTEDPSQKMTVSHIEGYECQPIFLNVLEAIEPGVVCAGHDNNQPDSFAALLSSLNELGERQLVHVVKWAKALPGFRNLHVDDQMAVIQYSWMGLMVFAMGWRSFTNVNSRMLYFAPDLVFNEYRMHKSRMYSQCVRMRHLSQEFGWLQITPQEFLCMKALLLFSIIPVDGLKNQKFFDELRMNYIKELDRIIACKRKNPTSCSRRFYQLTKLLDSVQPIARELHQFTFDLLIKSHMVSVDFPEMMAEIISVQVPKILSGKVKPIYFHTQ
The experiment is classed as functional.

The target in experiment [7] is T4, Androgen receptor. Format: functional. The source holds these as a separate data set.
In experiment [8] the target is Voltage-dependent L-type calcium channel subunit alpha-1C (Rattus norvegicus, UniProt P22002). The experiment is classed as functional.
For experiment [9], the target named is T5, Cannabinoid receptor 1 (Homo sapiens, UniProt P21554). The experiment is classed as functional, cell-based.
T5 sequence (P21554 whole entry): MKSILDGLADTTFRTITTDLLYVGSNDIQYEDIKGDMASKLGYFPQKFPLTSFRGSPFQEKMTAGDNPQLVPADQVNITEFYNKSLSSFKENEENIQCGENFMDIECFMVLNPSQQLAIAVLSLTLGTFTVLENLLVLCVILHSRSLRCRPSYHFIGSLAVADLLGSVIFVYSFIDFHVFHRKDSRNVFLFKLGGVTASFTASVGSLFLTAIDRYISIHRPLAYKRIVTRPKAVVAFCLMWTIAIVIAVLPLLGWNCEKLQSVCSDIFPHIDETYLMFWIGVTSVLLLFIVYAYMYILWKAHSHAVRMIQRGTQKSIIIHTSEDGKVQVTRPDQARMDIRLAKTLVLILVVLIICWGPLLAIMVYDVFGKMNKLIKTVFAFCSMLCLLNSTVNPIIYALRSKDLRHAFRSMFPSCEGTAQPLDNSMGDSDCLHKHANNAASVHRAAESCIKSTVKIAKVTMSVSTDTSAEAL
For experiment [10], the target named is T5, Cannabinoid receptor 1. The experiment is classed as functional, cell-based. This is another data set of the same source.
The target of experiment [11] is Glutamate receptor ionotropic, NMDA 1 (Rattus norvegicus, UniProt P35439).
The target of another experiment is Histamine H1 receptor (Homo sapiens, UniProt P35367).
Histamine H1 receptor, sequence (P35367 whole entry): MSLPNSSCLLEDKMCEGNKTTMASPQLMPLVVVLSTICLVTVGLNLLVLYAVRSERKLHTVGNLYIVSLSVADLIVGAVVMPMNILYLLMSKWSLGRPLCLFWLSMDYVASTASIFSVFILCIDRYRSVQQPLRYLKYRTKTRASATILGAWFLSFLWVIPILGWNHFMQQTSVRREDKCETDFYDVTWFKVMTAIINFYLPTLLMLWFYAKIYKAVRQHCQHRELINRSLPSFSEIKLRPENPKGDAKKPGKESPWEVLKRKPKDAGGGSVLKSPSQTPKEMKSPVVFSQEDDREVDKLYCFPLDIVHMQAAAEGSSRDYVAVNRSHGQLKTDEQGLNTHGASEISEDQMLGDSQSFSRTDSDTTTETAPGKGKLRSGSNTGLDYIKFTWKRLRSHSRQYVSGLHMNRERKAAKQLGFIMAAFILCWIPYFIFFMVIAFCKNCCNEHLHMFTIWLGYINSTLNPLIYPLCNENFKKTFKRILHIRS
Another experiment concerns the target Histamine H2 receptor (Homo sapiens, UniProt P25021). The experiment is classed as functional, cell-based.
Another experiment deals with Mu-type opioid receptor (Homo sapiens, UniProt P35372). Briefly: biochemical. The experiment is classed as functional.
Mu-type opioid receptor, sequence (P35372 whole entry): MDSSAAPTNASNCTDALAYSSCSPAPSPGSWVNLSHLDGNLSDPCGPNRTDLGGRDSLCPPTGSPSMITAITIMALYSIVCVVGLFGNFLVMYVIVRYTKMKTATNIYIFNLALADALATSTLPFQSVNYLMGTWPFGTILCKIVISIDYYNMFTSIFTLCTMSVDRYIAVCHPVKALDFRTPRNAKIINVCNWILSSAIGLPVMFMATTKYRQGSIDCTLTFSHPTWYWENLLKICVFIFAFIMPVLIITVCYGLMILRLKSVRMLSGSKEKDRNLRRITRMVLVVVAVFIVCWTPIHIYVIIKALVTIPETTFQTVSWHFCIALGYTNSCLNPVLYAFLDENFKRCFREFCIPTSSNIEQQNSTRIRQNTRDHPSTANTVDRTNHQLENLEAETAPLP
In experiment [12] the target is T6, Amine oxidase [flavin-containing] A (Homo sapiens, UniProt P21397).
T6 sequence (P21397 whole entry): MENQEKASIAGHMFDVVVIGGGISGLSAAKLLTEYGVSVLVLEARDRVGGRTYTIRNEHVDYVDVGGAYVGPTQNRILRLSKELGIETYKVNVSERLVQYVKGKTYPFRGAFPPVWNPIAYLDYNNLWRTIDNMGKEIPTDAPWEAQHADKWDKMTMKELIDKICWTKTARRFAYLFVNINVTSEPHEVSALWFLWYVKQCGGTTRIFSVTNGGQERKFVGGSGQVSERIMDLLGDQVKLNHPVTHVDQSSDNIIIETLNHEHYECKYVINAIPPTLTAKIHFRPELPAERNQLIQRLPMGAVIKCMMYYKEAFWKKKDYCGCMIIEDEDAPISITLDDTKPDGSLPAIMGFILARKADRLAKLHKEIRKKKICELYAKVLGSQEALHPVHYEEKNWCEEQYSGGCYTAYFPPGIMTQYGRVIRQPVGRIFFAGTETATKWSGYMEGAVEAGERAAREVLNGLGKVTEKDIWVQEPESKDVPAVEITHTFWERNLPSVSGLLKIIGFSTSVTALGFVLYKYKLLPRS
Format: functional.

The next experiment concerns the target Histamine H3 receptor (Homo sapiens, UniProt Q9Y5N1).
For experiment [13], the target named is Sodium channel protein type 5 subunit alpha (Homo sapiens, UniProt Q14524). The experiment is classed as functional, cell-based.
The target of a further experiment is Acetylcholinesterase (Homo sapiens, UniProt P22303). Format: functional.
Acetylcholinesterase, sequence (P22303 whole entry): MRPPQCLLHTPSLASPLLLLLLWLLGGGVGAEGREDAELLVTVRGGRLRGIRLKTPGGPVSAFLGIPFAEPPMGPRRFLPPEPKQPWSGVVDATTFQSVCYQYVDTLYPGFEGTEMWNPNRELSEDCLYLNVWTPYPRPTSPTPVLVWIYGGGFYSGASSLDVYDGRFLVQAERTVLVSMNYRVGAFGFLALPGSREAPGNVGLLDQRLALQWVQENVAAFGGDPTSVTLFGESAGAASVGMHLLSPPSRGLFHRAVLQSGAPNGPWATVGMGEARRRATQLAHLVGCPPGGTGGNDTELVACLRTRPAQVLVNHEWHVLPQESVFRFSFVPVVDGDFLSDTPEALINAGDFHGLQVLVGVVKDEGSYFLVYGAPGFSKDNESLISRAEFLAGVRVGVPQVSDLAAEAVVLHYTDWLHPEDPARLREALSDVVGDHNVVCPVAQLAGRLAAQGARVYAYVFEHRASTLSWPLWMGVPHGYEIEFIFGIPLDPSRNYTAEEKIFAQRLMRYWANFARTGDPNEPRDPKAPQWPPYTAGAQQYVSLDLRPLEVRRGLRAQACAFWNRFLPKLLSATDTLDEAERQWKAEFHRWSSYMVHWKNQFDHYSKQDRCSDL
For experiment [14], the target named is T5, Cannabinoid receptor 1. Format: functional.
For experiment [15], the target named is Gamma-aminobutyric acid receptor subunit alpha-1/alpha-2/beta-2/gamma-2 (Homo sapiens, UniProt P14867+P18507+P47869+P47870). Format: protein-complex assay.
Gamma-aminobutyric acid receptor subunit alpha-1/alpha-2/beta-2/gamma-2, sequence (P14867 whole entry): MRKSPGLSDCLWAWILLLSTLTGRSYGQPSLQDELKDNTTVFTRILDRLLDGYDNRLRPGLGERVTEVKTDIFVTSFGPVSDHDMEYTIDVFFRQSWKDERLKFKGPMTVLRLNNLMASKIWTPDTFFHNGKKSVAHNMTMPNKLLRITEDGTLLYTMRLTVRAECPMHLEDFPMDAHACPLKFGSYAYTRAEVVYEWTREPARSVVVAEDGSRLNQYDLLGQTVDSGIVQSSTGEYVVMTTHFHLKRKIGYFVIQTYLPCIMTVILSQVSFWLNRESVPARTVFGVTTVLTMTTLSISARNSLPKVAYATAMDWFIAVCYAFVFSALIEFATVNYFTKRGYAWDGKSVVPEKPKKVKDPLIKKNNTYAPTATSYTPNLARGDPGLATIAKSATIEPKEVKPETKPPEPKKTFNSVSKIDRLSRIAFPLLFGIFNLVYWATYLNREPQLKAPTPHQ
Gamma-aminobutyric acid receptor subunit alpha-1/alpha-2/beta-2/gamma-2, sequence (P47870 whole entry): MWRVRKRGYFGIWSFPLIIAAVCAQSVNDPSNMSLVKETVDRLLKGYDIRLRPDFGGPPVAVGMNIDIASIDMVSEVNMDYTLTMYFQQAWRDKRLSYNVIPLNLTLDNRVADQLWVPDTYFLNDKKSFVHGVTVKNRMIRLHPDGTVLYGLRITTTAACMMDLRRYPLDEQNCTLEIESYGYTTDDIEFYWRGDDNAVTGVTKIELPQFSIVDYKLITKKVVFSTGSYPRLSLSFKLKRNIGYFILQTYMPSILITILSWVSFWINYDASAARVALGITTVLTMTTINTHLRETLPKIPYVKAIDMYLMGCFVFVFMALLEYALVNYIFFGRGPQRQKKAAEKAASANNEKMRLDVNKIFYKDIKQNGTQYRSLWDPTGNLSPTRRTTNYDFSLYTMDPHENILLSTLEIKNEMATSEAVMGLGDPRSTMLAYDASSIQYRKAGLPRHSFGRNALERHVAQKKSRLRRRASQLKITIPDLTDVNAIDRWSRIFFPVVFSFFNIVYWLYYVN
Gamma-aminobutyric acid receptor subunit alpha-1/alpha-2/beta-2/gamma-2, sequence (P18507 whole entry): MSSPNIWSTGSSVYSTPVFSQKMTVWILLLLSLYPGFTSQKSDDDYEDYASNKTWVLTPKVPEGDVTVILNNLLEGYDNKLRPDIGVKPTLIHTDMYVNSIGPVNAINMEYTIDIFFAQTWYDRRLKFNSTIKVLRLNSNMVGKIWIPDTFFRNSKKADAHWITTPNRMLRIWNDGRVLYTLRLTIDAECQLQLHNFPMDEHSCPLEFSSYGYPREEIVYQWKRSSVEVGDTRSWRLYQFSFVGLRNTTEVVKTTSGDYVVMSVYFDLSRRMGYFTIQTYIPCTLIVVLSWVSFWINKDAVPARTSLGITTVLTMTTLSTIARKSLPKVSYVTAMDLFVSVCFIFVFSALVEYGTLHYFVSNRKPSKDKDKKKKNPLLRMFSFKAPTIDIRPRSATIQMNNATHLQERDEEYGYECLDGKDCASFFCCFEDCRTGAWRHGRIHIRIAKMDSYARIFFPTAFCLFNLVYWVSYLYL
Gamma-aminobutyric acid receptor subunit alpha-1/alpha-2/beta-2/gamma-2, sequence (P47869 whole entry): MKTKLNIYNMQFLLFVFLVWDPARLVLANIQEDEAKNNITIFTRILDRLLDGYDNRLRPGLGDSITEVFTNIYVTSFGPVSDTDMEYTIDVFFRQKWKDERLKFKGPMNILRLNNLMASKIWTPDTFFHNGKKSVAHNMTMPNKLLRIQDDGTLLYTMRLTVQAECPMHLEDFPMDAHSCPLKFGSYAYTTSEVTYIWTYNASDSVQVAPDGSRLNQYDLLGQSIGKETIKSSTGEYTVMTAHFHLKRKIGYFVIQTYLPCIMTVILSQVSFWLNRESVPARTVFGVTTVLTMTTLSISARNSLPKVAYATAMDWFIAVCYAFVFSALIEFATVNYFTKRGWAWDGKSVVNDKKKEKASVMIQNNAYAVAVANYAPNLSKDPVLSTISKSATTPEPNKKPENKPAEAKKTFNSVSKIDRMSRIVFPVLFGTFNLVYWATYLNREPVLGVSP
Note: assay procedure not described here.

Beta-2 adrenergic receptor, sequence (P07550 whole entry): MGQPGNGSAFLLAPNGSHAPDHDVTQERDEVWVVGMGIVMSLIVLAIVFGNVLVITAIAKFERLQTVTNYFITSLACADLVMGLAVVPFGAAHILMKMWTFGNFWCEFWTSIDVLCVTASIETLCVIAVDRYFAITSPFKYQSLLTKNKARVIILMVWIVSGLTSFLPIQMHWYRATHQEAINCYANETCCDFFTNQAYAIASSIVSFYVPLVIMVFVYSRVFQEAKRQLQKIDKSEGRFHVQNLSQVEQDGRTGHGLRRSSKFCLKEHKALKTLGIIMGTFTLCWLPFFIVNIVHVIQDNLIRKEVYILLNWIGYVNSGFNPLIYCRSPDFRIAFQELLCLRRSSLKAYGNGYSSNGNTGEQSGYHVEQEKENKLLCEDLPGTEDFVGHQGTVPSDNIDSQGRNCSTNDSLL
Histamine H3 receptor, sequence (Q9Y5N1 whole entry): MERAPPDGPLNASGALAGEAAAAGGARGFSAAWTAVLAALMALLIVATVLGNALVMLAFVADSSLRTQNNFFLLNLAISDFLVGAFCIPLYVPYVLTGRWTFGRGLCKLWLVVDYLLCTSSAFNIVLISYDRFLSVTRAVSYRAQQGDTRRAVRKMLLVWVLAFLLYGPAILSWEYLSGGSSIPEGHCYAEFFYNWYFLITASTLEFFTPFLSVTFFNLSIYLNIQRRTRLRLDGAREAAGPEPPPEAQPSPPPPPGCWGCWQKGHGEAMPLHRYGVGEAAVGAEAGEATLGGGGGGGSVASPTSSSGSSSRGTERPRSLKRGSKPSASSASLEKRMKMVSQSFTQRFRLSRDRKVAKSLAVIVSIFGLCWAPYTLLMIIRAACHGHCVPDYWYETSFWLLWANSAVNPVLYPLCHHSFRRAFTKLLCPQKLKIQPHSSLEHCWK

What is called AC50 is the midpoint of the concentration-response curve, whichever way the signal moves. As for `CCC(=O)OCC(=O)[C@@]1(OC(=O)CC)[C@H](C)C[C@H]2[C@H]3[C@H]([C@@H](O)C[C@@]21C)[C@@]1(C)C=CC(=O)C=C1C[C@H]3Cl` [ALCLOMETASONE DIPROPIONATE], the AC50 (in experiment [1]; in experiment [2]; in [3]; in experiment [4]; in experiment [5]; at Androgen receptor [6]) was over 30 µM in each case. Moreover, the AC50 at Androgen receptor [7] was 9.4 µM; in experiment [8] it was over 30 µM; at Cannabinoid receptor 1 [9], over 30 µM; at Cannabinoid receptor 1 [10], 0.58 µM; in [11] it was over 30 µM; at Histamine H1 receptor it was over 30 µM. Also, the half-maximal activity concentration (AC50) (on Histamine H2 receptor; on Mu-type opioid receptor; in experiment [12]; at Histamine H3 receptor) was over 30 µM each time.
In the case of `N#C[C@@H]1C[C@@H]2C[C@@H]2N1C(=O)[C@@H](N)C12CC3CC(CC(O)(C3)C1)C2` [SAXAGLIPTIN ANHYDROUS], in experiment [13], the concentration at half-maximal activity (AC50) is over 15 µM.
Consider `OCCOCCN1CCN(C2=Nc3ccccc3Sc3ccccc32)CC1` [QUETIAPINE], for which the AC50 on Acetylcholinesterase was over 30 µM; on Cannabinoid receptor 1 [9] it was over 30 µM; on Cannabinoid receptor 1 [10], over 30 µM; at Cannabinoid receptor 1 [14] it was over 10 µM; in experiment [15], over 30 µM.
